In patent US8168832B2, “2,4,6-trialkylphenyl substituted cyclopentane-1,3-dione” (Bayer Cropscience AG, priority 2006, dated 2012):

Columns and labels:
[1] = test system: crop plants (cereal); assay: Container trials with cereal in the greenhouse, mefenpyr 1 day prior to herbicide application (Example B, use of safeners); type: in vivo; conditions: without safener
Description: Seeds of monocotyledonous and dicotyledonous weed and crop plants are placed into sandy loam in wood fiber pots or in plastic pots, covered with soil and cultivated in a greenhouse, during the vegetation period also outdoors outside of the greenhouse, under good growth conditions. 2 to 3 weeks after sowing, the test plants are treated at the one- to three-leaf stage. The test compounds, formulated as wettable powders (WP) or liquid (EC), are, in various dosages at a water application rate of 300 l/ha (converted), with wetting agent (0.2 to 0.3%) added, sprayed onto the plants and the surface of the soil. […]
If it is additionally to be tested as to whether safeners can improve the plant compatibility of test substances in the case of crop plants, the following options are used for applying the safener: • seeds of the crop plants are, before sowing, dressed with the safener substance (the amount of safener stated in percent, based on the weight of the seed) • before the application of the test substances, the crop plants are sprayed with the safener at a certain application rate per hectare (usually 1 day before the application of the test substances) • the safener is applied together with the test substance as a tank mix (the amount of safener is stated in g/ha or as a ratio, based on the herbicide). • By comparing the effect of test substances on crop plants without or with safener treatment, it is possible to assess the effect of the safener substance.
Container Trials with Cereal in the Greenhouse
Mefenpyr 1 Day Prior to Herbicide Application

[2] = test system: monocotyledonous and dicotyledonous weed and crop plants; assay: Herbicidal post-emergence action (Example B), also comparison with known compounds; type: in vivo; parameters: key: % herbicidal effect: 0 = like control, 100 = plants died
Description: Seeds of monocotyledonous and dicotyledonous weed and crop plants are placed into sandy loam in wood fiber pots or in plastic pots, covered with soil and cultivated in a greenhouse, during the vegetation period also outdoors outside of the greenhouse, under good growth conditions. 2 to 3 weeks after sowing, the test plants are treated at the one- to three-leaf stage. The test compounds, formulated as wettable powders (WP) or liquid (EC), are, in various dosages at a water application rate of 300 l/ha (converted), with wetting agent (0.2 to 0.3%) added, sprayed onto the plants and the surface of the soil. 3 to 4 weeks after the treatment of the test plants, the effect of the preparations is rated visually in comparison to untreated controls (herbicidal effect in percent (%): 100% effect=the plants have died, 0% effect=like control plants).

[3] = 10 days after application, 25 g of a.i./ha
[4] = 10 days after application, 50 g of a.i./ha
[5] = 10 days after application, 100 g of a.i./ha
[6] = 10 days after application, 200 g of a.i./ha
[7] = 28 days after application, 25 g of a.i./ha
[8] = 28 days after application, 50 g of a.i./ha
[9] = 28 days after application, 100 g of a.i./ha
[10] = 28 days after application, 12.5 g of a.i./ha

| SMILES | Summer wheat observed (%) [1, 3] [%] | Summer barley observed (%) [1, 4] [%] | Summer wheat observed (%) [1, 4] [%] | Summer barley observed (%) [1, 5] [%] | Summer wheat observed (%) [1, 5] [%] | Summer wheat observed (%) [1, 7] [%] | Summer barley observed (%) [1, 8] [%] | Summer wheat observed (%) [1, 8] [%] | Summer barley observed (%) [1, 9] [%] | Summer wheat observed (%) [1, 9] [%] | Summer wheat observed (%) [1, 10] [%] | Summer barley observed (%) [1, 7] [%] | also measured |
| --- | --- | --- | --- | --- | --- | --- | --- | --- | --- | --- | --- | --- | --- |
| CCc1cc(C)cc(CC)c1C1=C(O)C2CC3OC(C)(C)OC3CC2C1=O (mixture of isomers) [I-a-13] | 50 | 50 | 80 | 60 | 80 |  |  |  |  |  |  |  | Summer barley observed (%) [1, 3]: 30% |
| CCc1cc(C)cc(CC)c1C1=C(OC(=O)C(C)C)[C@H]2CCCC[C@H]2C1=O (relative stereo) [I-b-23] | 40 | 60 | 70 | 60 | 80 |  |  |  |  |  |  |  | Summer wheat observed (%) ([1]; 10 days after application, 12.5 g of a.i./ha): 30%; Summer barley observed (%) [1, 3]: 30% |
| CCc1cc(C)cc(CC)c1C1=C(OC(=O)C(C)(C)C)[C@H]2CCCC[C@H]2C1=O (relative stereo) [I-b-24] | 30 | 20 | 60 | 50 | 65 |  |  |  |  |  |  |  | Summer barley observed (%) [1, 6]: 60%; Summer wheat observed (%) [1, 6]: 70%; ALOMY ([2]; 100 g/ha): 80; AVEFA ([2]; 100 g/ha): 90; LOLMU ([2]; 100 g/ha): 95; ALOMY ([2]; 200 g/ha): 90; AVEFA ([2]; 200 g/ha): 95; LOLMU ([2]; 200 g/ha): 98 |
| CCc1cc(C)cc(CC)c1C1=C(OC(=O)COC)[C@H]2CCCC[C@H]2C1=O (relative stereo) [I-b-25] |  |  |  |  |  | 10 | 40 | 50 | 95 | 70 |  |  |  |
| CCc1cc(C)cc(CC)c1C1=C(OC(=O)C(C)(C)C)[C@H]2CCCC[C@@H]2C1=O (relative stereo) [I-b-26] |  |  |  |  |  |  | 20 | 15 | 80 | 70 |  |  | ALOMY ([2]; 100 g/ha): 95; AVEFA ([2]; 100 g/ha): 98; LOLMU ([2]; 100 g/ha): 70; ALOMY ([2]; 200 g/ha): 97; AVEFA ([2]; 200 g/ha): 98; LOLMU ([2]; 200 g/ha): 100 |
| CCc1cc(C)cc(CC)c1C1=C(OC(=O)COC)[C@H]2CCCC[C@@H]2C1=O (relative stereo) [I-b-27] |  |  |  |  |  | 20 | 20 | 40 | 50 | 70 | 10 |  |  |
| CCc1cc(C)cc(CC)c1C1=C(OC(=O)C(C)C)[C@H]2CCCC[C@@H]2C1=O (relative stereo) [I-b-28] |  |  |  |  |  | 70 | 75 | 80 |  |  | 10 | 30 | Summer barley observed (%) [1, 10]: 20% |
| CCc1cc(C)cc(C)c1C1C(=O)[C@H]2CCCC[C@@H]2C1=O [I-a-1] |  |  |  |  |  | 40 | 70 | 50 |  | 50 | 10 | 50 | Summer barley observed (%) [1, 10]: 5% |
| CCc1cc(C)cc(C)c1C1=C(O)C2(CCCCC2)CC1=O [I-a-3] |  | 20 |  |  |  | 25 |  | 25 |  |  |  |  | Summer barley observed (%) [1, 3]: 15% |
| CCc1cc(C)cc(CC)c1C1=C(O)C2CCCCC2C1=O (centres unmarked) [I-a-9] |  |  |  |  |  | 5 | 50 | 60 |  | 60 |  | 20 | ALOMY ([2]; 100 g/ha): 98; AVEFA ([2]; 100 g/ha): 100; LOLMU ([2]; 100 g/ha): 99; ALOMY ([2]; 200 g/ha): 98; AVEFA ([2]; 200 g/ha): 100; LOLMU ([2]; 200 g/ha): 99 |
| CCc1cc(CC)c(C2=C(O)C3CCCCC3C2=O)c(CC)c1 (centres unmarked) [I-a-15] |  | 20 | 20 | 30 | 30 |  |  |  |  |  |  |  |  |
| CCc1cc(C)cc(C)c1C1=C(O)C2CCCCCC2C1=O (centres unmarked) [I-a-18] |  |  |  |  |  | 60 | 50 | 70 | 90 | 80 |  | 20 |  |
| CCc1cc(C)cc(C)c1C1=C(OC(=O)COC)C2(CCCC2)CC1=O [I-b-11] |  |  | 30 |  | 50 |  |  |  |  |  |  |  |  |
| CCc1cc(C)cc(C)c1C1=C(OC(=O)COC)C2CCCCC2C1=O (centres unmarked) [I-b-13] |  |  |  |  |  | 70 | 90 | 85 |  |  | 20 | 20 | Summer barley observed (%) [1, 10]: 10% |
| CCc1cc(C)cc(C)c1C1=C(OC(=O)COC)C2CCCCC2C1=O (centres unmarked) [I-b-15] |  |  |  |  |  | 30 | 30 | 50 | 90 | 85 | 10 | 10 |  |
| CCc1cc(C)cc(C)c1C1=C(OC(=O)C(C)C)C2CCCCC2C1=O (centres unmarked) [I-b-16] | 20 | 40 | 50 | 60 | 60 |  |  |  |  |  |  |  | Summer barley observed (%) [1, 3]: 20% |
| CCC(=O)OC1=C(c2c(C)cc(C)cc2CC)C(=O)C2CCCCC12 (centres unmarked) [I-b-21] |  |  |  |  |  | 60 | 50 | 70 | 95 |  | 20 | 30 | Summer barley observed (%) [1, 10]: 5% |
| CCc1cc(C)cc(CC)c1C1=C(OC(=O)COC)C2(CCCCC2)CC1=O [I-b-33] | 15 |  | 30 |  | 65 |  |  |  |  |  |  |  |  |
| CCc1cc(CC)c(C2=C(OC(=O)COC)C3CCCCC3C2=O)c(CC)c1 (centres unmarked) [I-b-42] | 40 | 40 | 50 | 50 | 50 |  |  |  |  |  |  |  | Summer barley observed (%) [1, 3]: 20% |
| CCC(=O)OC1=C(c2c(CC)cc(C)cc2CC)C(=O)C2CCCCC12 (centres unmarked) [I-b-44] | 20 | 40 | 40 | 40 | 40 |  |  |  |  |  |  |  | Summer barley observed (%) [1, 3]: 20% |
| CCOC(=O)OC1=C(c2c(C)cc(C)cc2CC)C(=O)C2CCCCC12 (centres unmarked) [I-c-4] |  |  |  |  |  | 20 | 30 | 90 | 80 | 95 | 10 | 10 | Summer barley observed (%) [1, 10]: 5% |
| CCOC(=O)OC1=C(c2c(CC)cc(C)cc2CC)C(=O)C2CCCCC12 (centres unmarked) [I-c-8] | 50 | 20 | 70 | 30 | 80 |  |  |  |  |  |  |  | Summer barley observed (%) [1, 3]: 15% |
| CCOC(=O)OC1=C(c2c(CC)cc(C)cc2CC)C(=O)C2CCCCC12 (centres unmarked) [I-c-9] |  |  |  |  |  | 30 | 40 | 60 | 90 | 70 | 10 | 20 | Summer barley observed (%) [1, 10]: 10% |
| CCc1cc(C)cc(CC)c1C1=C(OC(=O)OC)C2CCCCC2C1=O (centres unmarked) [I-c-10] |  |  |  |  |  | 40 | 50 | 80 | 90 | 85 |  | 25 |  |
| CCc1cc(C)cc(CC)c1C1=C(OC(=O)OC)C2CCCCC2C1=O (centres unmarked) [I-c-14] |  |  |  |  |  | 80 | 93 | 95 |  |  | 20 | 30 |  |
